Read-outs that look alike come from different tables or passages of the source.
Legend:
patients with ALS = system: patients with ALS
Excerpt: Non-limiting examples of measures of clinical response include the ALS Functional Rating Scale Revised (ALSFRS-R) and respiratory vital capacity.
Stem cell reprogramming for long term disease regulation is evidenced by finding normalization of biomarkers for at least one month after the last dose in the 6-month administration procedure.
A major subset of ALS patients show evidence for ongoing inflammation that potentially contributes to disease progression.

CD 34+ HSCs = conditions: LPS-activated HSC (10 ng/mL LPS overnight), single treatment with NP001 300 μM, grown 3 days, RNAseq
Description: CD 34+ HSCs were isolated from normal human adult bone marrow (>95% pure) and were either stimulated by 10 ng/mL LPS overnight or control medium. NP001 was added (300 μM; equivalent to phase 2 dose in humans) to washed HSC controls and LPS-activated HSC and the cells grown for 3 days in HSC medium. RNAseq with 100 M reads was performed on all cells and pathway analysis was performed.
By comparison with non-LPS-activated cells, LPS-activated pathways with p<10-15 were defined. […] NP001-treated, LPS-activated HSC gene expression pathways were evaluated in parallel. […] In addition, LPS-activated HSC were evaluated for factors (e.g., protein and genes), that were modulated following treatment with NP001.

[1] = ALS patients with plasma CRP levels >1.13 mg/L
[2] = clinical responders, 6-month pulse therapy, at least one month after last dose
[3] = mechanism of action studies in patients with ALS

sodium chlorite [NP001]
disease progression (patients with ALS; [1]): slowing disease progression
innate immune function (patients with ALS; [1]): restore innate immune function
plasma epidermal growth factor (EGF), long term change (patients with ALS; [2]): upregulation
plasma hepatocyte growth factor (HGF), long term change (patients with ALS; [2]): downregulation
plasma interleukin-10 (IL-10), long term change (patients with ALS; [2]): upregulation
plasma interleukin-18 (IL-18), long term change (patients with ALS; [2]): downregulation
plasma lipopolysaccharide (LPS), long term change (patients with ALS; [2]): downregulation
plasma lipopolysaccharide binding protein (LBP), long term change (patients with ALS; [2]): downregulation
plasma neopterin, long term change (patients with ALS; [2]): upregulation
plasma soluble CD163 (sCD163), long term change (patients with ALS; [2]): downregulation
8 biomarkers associated with microbial translocation (patients with ALS; intermittent dosing (3 days/month), patients whose disease slowed): prolonged regulation
disease progression (patients with ALS; [3]): slowing disease progression
innate immune function (patients with ALS; [3]): restore innate immune function
HSC gene expression pathways stimulated by LPS (CD 34+ HSCs): reversed

From patent US20250114396A1, “CHLORITE USES FOR STEM CELLS” (The Regents of the University of California, priority 2023, published 2025)
